We go through five molecules from article PMC3686309 (ACS medicinal chemistry letters, 2013).

One data set deals with WT IDH1 (Homo sapiens, UniProt O75874). Put plainly: WT IDH1 enzyme inhibition. It is filed as biochemical. Conditions: at 100 μM.
Data set [1] is described as follows: Cytotoxicity against WI-38 fibroblast cells. Type of data set: cell-based, human. Conditions: human, WI-38 fibroblast cells.
A further data set concerns WI-38 fibroblast cells. Put plainly: Cytotoxicity against WI-38 fibroblast cells. Type of data set: cell-based, human.

WT IDH1, sequence (O75874 whole entry): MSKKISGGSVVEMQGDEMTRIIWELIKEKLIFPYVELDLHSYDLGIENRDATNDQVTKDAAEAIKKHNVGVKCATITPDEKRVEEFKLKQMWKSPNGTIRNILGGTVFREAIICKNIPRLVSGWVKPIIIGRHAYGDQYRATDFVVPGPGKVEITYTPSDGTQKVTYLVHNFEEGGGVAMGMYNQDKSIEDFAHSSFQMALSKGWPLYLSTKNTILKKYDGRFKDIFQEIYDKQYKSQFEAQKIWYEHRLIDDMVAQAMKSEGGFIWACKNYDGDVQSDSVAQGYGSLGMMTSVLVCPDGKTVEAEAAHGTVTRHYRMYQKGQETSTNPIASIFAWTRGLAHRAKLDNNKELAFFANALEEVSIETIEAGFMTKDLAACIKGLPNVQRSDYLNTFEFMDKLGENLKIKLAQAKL

Take `O=c1ccc(Cc2ccccc2)cn1O` [Compound 1]: the “activity against WT IDH1” value on WT IDH1 is recorded as “no activity”. Take `O=c1cccc(Cc2ccccc2)n1O` [Compound 4]: the 50% effective concentration (EC50) in data set [1] was > 50 µM. `Cc1cc(Cc2ccc(O)cc2)n(O)c(=O)c1` [Compound 3]: in data set [1], the EC50 is > 50 µM. In addition, in the data set on WI-38 fibroblast cells, the “cytotoxicity against human cells (in words)” value is given as “do not have cytotoxicity”.

For `CC(C)c1cc(Cc2ccccc2)n(O)c(=O)c1` [Compound 5], the EC50 in data set [1] was > 50 µM. Turning to `Cc1cc(Cc2ccccc2)n(O)c(=O)c1` [Compound 2], the EC50 in data set [1] was > 50 µM. Further, the “cytotoxicity against human cells (in words)” value in the data set on WI-38 fibroblast cells is recorded as “do not have cytotoxicity”.
